Counter-ions that a name gives are not always drawn.
Assays:
[1] = tested on: cells from 4 primitive epidermoid carcinomas of the larynx and 1 primitive undifferentiated carcinoma of the nasopharynx; test: Effects of L-aC on cell cycle of cultured primitive human tumour cells (cytofluorimetric analysis); assay type: cell-based
Protocol: (§1) The effects of L-aC on cells from 4 primitive epidermoid carcinomas of the larynx and 1 primitive undifferentiated carcinoma of the nasopharynx were tested.
Tissue fragments from the tumour mass were mechanically dissociated in Hank's solutions adding an antibiotic and an antifungal to obtain a cell monosuspension free of agglomerates. The resulting suspension was centrifuged at 1200 rpm for 5 m′ and the pellet was resuspended in MEM culture medium supplemented with 10% of patient serum, to obtain a concentration of 2−3×10^4 cells/ml of medium. 1 ml Samples were prepared from the suspension, in amounts equivalent to the number of the concentrations to be assayed (0.2-20 mg/ml) as well as a control sample.
The suspensions were exposed to the medicament in Dubnoff bath at 37° C. for 24 h, then centrifuged and resuspended in 1 ml of fixing solution (tris buffer+methanol (1:3)) for 30 minutes and finally stained with 0.5% propyl iodide with simultaneous treatment with RNase.
Cytofluorimetric analysis in order to evaluate the percentage distribution of the cell cycle phases, was performed by an Ortho Diagnostic Spectrum III cytofluorigraph, equipped with Graphic Method computerized program.
The evaluation of the cell sensitivity to the medicament was based on the extent of the perturbations induced by L-aC on the cell cycle.

[2] = tested on: HL60, Du 145, HT 29 and MCF 7 cell lines; test: Sensitivity and apoptosis in all assayed stabilized human neoplastic cell lines; assay type: cell-based
Protocol: (§2) The effects of L-aC on stabilized human neoplastic cell lines were tested using the methylene blue assay.
(§3) Acute promyelocytic leukemia cell line (HL60) and prostate (Du 145), colon (HT 29) and breast (MCF 7) adenocarcinoma cell lines have been used.
(§4) Cell suspensions at concentrations of 10^5 cells/ml were prepared.
(§5) 100 μl of the obtained cell suspension were inoculated on 96 well plates and incubated at 37° for 12 hours, to obtain cell adhesion to the plates. After 12 hours, L-aC was added at the concentrations of 0.2 mg/ml, 2 mg/ml, 20 mg/ml. After 72 hours, the culture medium was removed and 100 μl of 100% ethanol were added for 30 min. Subsequently ethanol was removed and 1% methylene-blue was added for 2 hours. The dye was then removed and the plates were dried before adding 1M HCl.
The induction of apoptosis has been detected due to nuclear cromatin condensation, cytoplasmic shrinking, endoplasmic reticulum dilatation and membrane blebbing together with DNA fragmentation.

[3] = tested on: Cells from Larynx Carcinoma Explant; test: In vitro short-term chemosensitivity assay (MTT); assay type: cell-based, human
Protocol: as §1
Tissue fragments from the tumour mass were mechanically dissociated in Hank's solutions adding an antibiotic and an antifungal to obtain a cell monosuspension free of agglomerates. The resulting suspension was centrifuged at 1200 rpm for 5 minutes and the pellet was resuspended in MEM culture medium supplemented with 10% of patient serum, to obtain a concentration of 10^5 cells/ml. Subsequently, 180 μl of the resulting suspension were dispensed in microplate wells and incubated under 5% CO2 atmosphere at 37° C. for 3 days. After that, the antitumor medicaments were added in the amount of 20 μl for each well, at a concentration of 0.1×, 1× and 10× the maximum serum concentrations that can usually be reached in clinical practice. 24 h after the beginning of the exposure to the antitumour medicament, 100 μl of MTT were added, and after 4 h, a further 150 μl of dimethylsulfoxide were added.
The optical density was evaluated by a Uniscan microspectrophotometer with a […] wavelength filter. Cytotoxicity was evaluated as percentage of the optical density of the treated sample compared with the optical density of the control.
Bleomycin (BLEC), […] (CDDP), 5-fluoruracil (5-FU), vincristine (VCR), epidoxorubicin (Epi-Dx) and methotrexate (MTX) were tested for comparison purposes.
L-aC was tested at the following concentrations: 0.2-2-20 mg/ml.
In vitro short-term chemosensitivity assay (according to Hill and coll.)
(Cell Vitality Percentage After Exposure to the Antitumoral)—Raw Data
(Cells from Larynx Carcinoma Explant)

[4] = tested on: breast (MCF 7) adenocarcinoma cell line; test: Methylene blue assay on stabilized human neoplastic cell lines; assay type: cell-based
Protocol: as §2, §3, §4
as §5, with “After 72 hours, the culture medium was removed and 100 μl of 100% ethanol were added for 30 min.” left out
(§6) The cytotoxicity percentage was calculated using the following formula:
(§7) (1−[O^D treated cells/O^D control cells)×100.
(§8) The optical density was evaluated by Uniskan micro-spectrophotometer with 630 nmwavelength filter.
(§9) The induction of apoptosis (appraised by Giemsa staining) was remarkable mainly on stabilized human neoplastic cell lines from breast and colon carcinomas.

[5] = tested on: colon (HT 29) adenocarcinoma cell line; test: as above; assay type: cell-based
Protocol: as §2, §3, §4
as §5, with “After 72 hours, the culture medium was removed and 100 μl of 100% ethanol were added for 30 min.” left out
as §6, §7, §8, §9

[6] = 20 mg/ml, 48 hours after exposure

CC(=O)OC(CC(=O)[O-])C[N+](C)(C)C [L-aC, L-acetylcarnitine hydrochloride]
increase in the percentage of S phase cells compared with the control ([1]; 0.2 mg/ml, 24 h, all samples): about 10% | effect on cell cycle ([1]; 20 mg/ml, 24 h): block in the percentage of the cells in G1 phase | G1/S+G2M ratio after the treatment ([1]; 20 mg/ml, tumour with pre-treatment ratio 31/69): 70/30 | programmed cell death phenomena ([2]; 0.2 mg/ml, all assayed cell lines): Phenomena suggestive of programmed cell death were already observed | programmed cell death phenomena ([2]; 2 mg/ml): more marked and evident | change of effect over concentration range ([2]; 2 to 20 mg/ml): No significant changes | sensitivity of the tested cell lines ([2]; all tested cell lines): sensitive | Cell Vitality Percentage After Exposure ([3]; Table 2 explant, 0.1x): 62% | Cell Vitality Percentage After Exposure ([3]; Table 2 explant, 1x): 32% | Cell Vitality Percentage After Exposure ([3]; Table 2 explant, 10x): 15% | Cell Vitality Percentage After Exposure ([3]; Table 3 explant, 0.1x): 42% | Cell Vitality Percentage After Exposure ([3]; Table 3 explant, 1x): 24% | Cell Vitality Percentage After Exposure ([3]; Table 3 explant, 10x): 7.2% | Cell Vitality Percentage After Exposure ([3]; Table 4 explant, 0.1x): 3.8% | Cell Vitality Percentage After Exposure ([3]; Table 4 explant, 1x): 1.5% | Cell Vitality Percentage After Exposure ([3]; Table 4 explant, 10x): 1.4% | Cell Vitality Percentage After Exposure ([3]; Table 5 explant, 0.1x): 63% | Cell Vitality Percentage After Exposure ([3]; Table 5 explant, 1x): 37% | Cell Vitality Percentage After Exposure ([3]; Table 5 explant, 10x): 32% | cytotoxicity (percentage of dead cells) [4, 6]: 68% | induction of apoptosis (Giemsa staining) ([4]; breast carcinoma line): remarkable | cytotoxicity (percentage of dead cells) [5, 6]: 63% | induction of apoptosis (Giemsa staining) ([5]; colon carcinoma line): remarkable

Reference: US6673839B1, “Pharmaceutical compositions with antitumour activity” (Universita' Degli Studi di Catania, priority 1998, dated 2004)
